This note sets out measurements from patent US20260070945A1, “MACROCYCLIC IMMUNOMODULATORS” (Bristol-Myers Squibb Company, priority 2022, published 2026).

Broadly, the IC50 is the concentration needed to halve the response being measured.

The structures appear in SMILES notation. *1 amine or outer side, *2 acyl side, *3 side chain or, on linkers, in order; H or OH if unused. Where a SMILES comes first, the peptide text is derived from it. Bridges are numbered along the chain shown (N, C = ends). [ ]: non-standard residue; d: D form. The star is where a group is joined. Phe(4-guanidino) = N=C(N)Nc1ccc(C[C@H](N)C(=O)O)cc1; Bip = N[C@@H](Cc1ccc(-c2ccccc2)cc1)C(=O)O; Phe(4-NH2) = Nc1ccc(C[C@H](N)C(=O)O)cc1; Phe(3-Me) = Cc1cccc(C[C@H](N)C(=O)O)c1; NH(CH2)8CO = O=C(CCCCCCCCN[*:1])[*:2]; Cha = N[C@@H](CC1CCCCC1)C(=O)O; 12Ado = NCCCCCCCCCCCC(=O)O; Carboxymethyl = O=C(O)C*; NMeA = CN[C@@H](C)C(=O)O; Orn = NCCC[C@H](N)C(=O)O; Aun = NCCCCCCCCCCC(=O)O; Dab = NCC[C@H](N)C(=O)O; AEEA = NCCOCCOCC(=O)O

The target in the assay is T1, PD-1/PD-L1 interaction (PE-labeled human PD-L1-Ig binding to Jurkat cell line over-expressing human PD-1) (Homo sapiens, UniProt Q15116).
T1 construct: expressed in transfected cells; host or cells: Jurkat
T1 sequence (Q15116 25-288): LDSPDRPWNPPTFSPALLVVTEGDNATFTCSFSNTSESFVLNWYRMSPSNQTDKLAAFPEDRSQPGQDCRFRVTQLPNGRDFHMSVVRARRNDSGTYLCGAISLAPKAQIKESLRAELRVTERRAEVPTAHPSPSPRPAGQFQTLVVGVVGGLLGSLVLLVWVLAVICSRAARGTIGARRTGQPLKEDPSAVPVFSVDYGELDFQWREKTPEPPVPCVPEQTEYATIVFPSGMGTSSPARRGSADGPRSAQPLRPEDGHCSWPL
As to the kind of experiment: Jurkat-PD-1 Cell Binding High-Content Screening Assay (CBA). The note with it: PE-labeled PD-L1-Ig 20 nM final, Jurkat-hPD-1 cells; read-out: Jurkat HPD1 PDL1 IC50. In short, it runs like this: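 Cells 8×10^3/well, DMEM + 10% FCS; cpd 2 h, 37 °C; PE–PD-L1-Ig 20 nM final, 1 h; PFA fix + Hoechst 33342, 3× dPBS wash; high-content imager.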
Take `Cc1cccc(C[C@@H]2NC(=O)[C@H](CC(=O)O)NC(=O)[C@H](Cc3ccc(OCC(=O)O)cc3)NC(=O)[C@H]([C@@H](C)O)NC(=O)CSC[C@@H](C(=O)N[C@@H](CCN)C(=O)NCCCCCCCCCCCC(=O)NCCCCCCCCCCCC(=O)O)NC(=O)[C@H](CCC(=O)O)NC(=O)[C@H](C(C)C)NC(=O)[C@H](CC3CCCCC3)NC(=O)[C@H](CCN)NC(=O)[C@@H](CC(C)C)NC(=O)[C@H](C)N(C)C(=O)[C@H](Cc3ccc(OCC(=O)O)cc3)NC(=O)[C@H](Cc3ccc(-c4ccccc4)cc3)NC(=O)[C@H](Cc3ccc(OCC(=O)O)cc3)NC2=O)c1` [Example 2682] ({CH2CO}-TY(Carboxymethyl)D[Phe(3-Me)]Y(Carboxymethyl)[Bip]Y(Carboxymethyl)[NMeA][dL][Dab][Cha]VEC[Dab][12Ado][12Ado]-OH; thioether N-14): the concentration for half-maximal inhibition (IC50) was 58 nM. For the molecule `Cc1cccc(C[C@@H]2NC(=O)[C@H](CC(=O)O)NC(=O)[C@H](Cc3ccc(NC(=N)N)cc3)NC(=O)[C@H]([C@@H](C)O)NC(=O)CSC[C@@H](C(=O)N[C@@H](CCN)C(=O)NCCCCCCCCC(=O)NCCCCCCCCCCC(=O)O)NC(=O)[C@H](CCCN)NC(=O)[C@H](C(C)C)NC(=O)[C@H](CC3CCCCC3)NC(=O)[C@H](CCN)NC(=O)[C@@H](CC(C)C)NC(=O)[C@H](C)N(C)C(=O)[C@H](Cc3ccc(NC(=N)N)cc3)NC(=O)[C@H](Cc3ccc(-c4ccccc4)cc3)NC(=O)[C@H](Cc3ccc(NC(=N)N)cc3)NC2=O)c1` [Example 2684] ({CH2CO}-T[Phe(4-guanidino)]D[Phe(3-Me)][Phe(4-guanidino)][Bip][Phe(4-guanidino)][NMeA][dL][Dab][Cha]V[Orn]C[Dab][NH(CH2)8CO][Aun]-OH; thioether N-14), the IC50 came out at 4.4 nM. On to `Cc1cccc(C[C@@H]2NC(=O)[C@H](CC(=O)O)NC(=O)[C@H](Cc3ccc(OCC(=O)O)cc3)NC(=O)[C@H]([C@@H](C)O)NC(=O)CSC[C@@H](C(=O)N[C@@H](CCC(=O)O)C(=O)NCCOCCOCC(=O)NCCCCCCCCCCCC(=O)O)NC(=O)CNC(=O)[C@H](C(C)C)NC(=O)[C@H](CC3CCCCC3)NC(=O)[C@@H](CCC(=O)O)NC(=O)[C@@H](CC(C)C)NC(=O)[C@H](C)N(C)C(=O)[C@H](Cc3ccc(OCC(=O)O)cc3)NC(=O)[C@H](Cc3ccc(-c4ccccc4)cc3)NC(=O)[C@H](Cc3ccc(OCC(=O)O)cc3)NC2=O)c1` [Example 2686] ({CH2CO}-TY(Carboxymethyl)D[Phe(3-Me)]Y(Carboxymethyl)[Bip]Y(Carboxymethyl)[NMeA][dL][dE][Cha]VGCE[AEEA][12Ado]-OH; thioether N-14), for which the half-maximal inhibitory concentration (IC50) is 257 nM. Regarding `Cc1cccc(C[C@@H]2NC(=O)[C@H](CC(=O)O)NC(=O)[C@H](Cc3ccc(OCC(=O)O)cc3)NC(=O)[C@H]([C@@H](C)O)NC(=O)CSC[C@@H](C(=O)NCC(=O)NCCOCCOCC(=O)NCCCCCCCCCCCC(=O)O)NC(=O)CNC(=O)[C@H](C(C)C)NC(=O)[C@H](CC3CCCCC3)NC(=O)[C@@H](CCC(=O)O)NC(=O)[C@@H](CC(C)C)NC(=O)[C@H](C)N(C)C(=O)[C@H](Cc3ccc(OCC(=O)O)cc3)NC(=O)[C@H](Cc3ccc(-c4ccccc4)cc3)NC(=O)[C@H](Cc3ccc(OCC(=O)O)cc3)NC2=O)c1` [Example 2688] ({CH2CO}-TY(Carboxymethyl)D[Phe(3-Me)]Y(Carboxymethyl)[Bip]Y(Carboxymethyl)[NMeA][dL][dE][Cha]VGCG[AEEA][12Ado]-OH; thioether N-14), the IC50 came to 54.5 nM.

As for `Cc1cccc(C[C@@H]2NC(=O)[C@H](CC(=O)O)NC(=O)[C@H](Cc3ccc(N)cc3)NC(=O)[C@H]([C@@H](C)O)NC(=O)CSC[C@@H](C(=O)N[C@@H](CCN)C(=O)NCCCCCCCCC(=O)NCCCCCCCCCCC(=O)O)NC(=O)[C@H](CCCN)NC(=O)[C@H](C(C)C)NC(=O)[C@H](CC3CCCCC3)NC(=O)[C@H](CCN)NC(=O)[C@@H](CC(C)C)NC(=O)[C@H](C)N(C)C(=O)[C@H](Cc3ccc(N)cc3)NC(=O)[C@H](Cc3ccc(-c4ccccc4)cc3)NC(=O)[C@H](Cc3ccc(N)cc3)NC2=O)c1` [Example 2689] ({CH2CO}-T[Phe(4-NH2)]D[Phe(3-Me)][Phe(4-NH2)][Bip][Phe(4-NH2)][NMeA][dL][Dab][Cha]V[Orn]C[Dab][NH(CH2)8CO][Aun]-OH; thioether N-14), the concentration for half-maximal inhibition (IC50) came to 6.1 nM.
